According to PubChem BioAssay (NCI):
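Where inhibition never reached the appropriate level, the endpoint shown equals the highest concentration tested. Otherwise, values were interpolated linearly from a five-concentration, 48-hour dose response in 96-well plates. Here, GI50 denotes the concentration required for 50% inhibition of growth. TGI marks complete inhibition of growth.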

Experiments:
Assay in all cases: growth of human tumour cells (NCI), 48 h
BT-549 breast = test system: BT-549 breast
EKVX NSCLC = test system: EKVX NSCLC
KM12 colon = test system: KM12 colon
NCI-H460 lung = test system: NCI-H460 lung
UO-31 renal = test system: UO-31 renal
DLD-1 colon = test system: DLD-1 colon
DMS 114 small cell lung = test system: DMS 114 small cell lung
DMS 273 small cell lung = test system: DMS 273 small cell lung
HOP-18 NSCLC = test system: HOP-18 NSCLC
KM20L2 colon = test system: KM20L2 colon
LXFL 529 NSCLC = test system: LXFL 529 NSCLC
M19-MEL melanoma = test system: M19-MEL melanoma
SNB-78 CNS = test system: SNB-78 CNS
DU-145 prostate = test system: DU-145 prostate

SMILES | TGI (BT-549 breast) [µM] | TGI (EKVX NSCLC) [µM] | TGI (KM12 colon) [µM] | TGI (NCI-H460 lung) [µM] | TGI (UO-31 renal) [µM] | TGI (DU-145 prostate) [µM] | other results
CCOc1ccc(N=Nc2ccc(-c3ccc(N=Nc4c(O)ccc5cc(S(=O)(=O)O)cc(S(=O)(=O)O)c45)cc3)cc2)cc1 | > 100 | > 100 | > 100 | > 100 | > 100 |  | 
C[N+]1(C)C/C(=C\c2ccc(O)cc2)C(=O)/C(=C/c2ccc(O)cc2)C1 |  | > 100 | > 100 | > 100 | > 100 |  | TGI (DLD-1 colon): > 100 µM; TGI (DMS 114 small cell lung): > 100 µM; TGI (DMS 273 small cell lung): > 100 µM; TGI (HOP-18 NSCLC): > 100 µM; TGI (KM20L2 colon): > 100 µM; TGI (LXFL 529 NSCLC): > 100 µM; TGI (M19-MEL melanoma): > 100 µM; TGI (SNB-78 CNS): > 100 µM
CC1(Cc2cc3c(cc2C2(c4ccc([N+](=O)[O-])cc4)OCCO2)OCO3)OCCO1 | 98.9 | > 100 | > 100 | > 100 | > 100 | > 100 | 
O=C(CSc1nc2ccc(I)cc2c(=O)n1Cc1ccccc1)NN1C(=O)CSC1c1ccccc1 (stereo unspecified) |  | 86.2 | 54.9 | 36.3 |  | 78.1 | 
CC(=O)c1c(C)cc2cccc(OC3OC(CO)C(O)C(O)C3O)c2c1O (stereo unspecified) (tested in a mixture with another compound) | > 100 | > 100 | > 100 | > 100 |  | > 100 | 
O=C(/C=C/c1ccc(O)cc1)c1cc(-c2cc(CCC(=O)c3ccc(O)cc3O)ccc2O)c(O)cc1O | > 50 | > 50 | > 50 | > 50 | > 50 | > 50 | 
O=C1O/C(=C\C=C\CO)C=C1/C=C/CO | 50.9 | 35.5 | > 100 | > 100 | 30.8 | 50.7 | 
O=S(=O)([O-])[O-].[Fe+2].[OH2+]c1c(Cl)cc(Cl)cc1/C=N/Nc1ccccn1 |  | 2.25 | 2.75 | 4.42 | 3.13 |  | TGI (DLD-1 colon): 1.8 µM; TGI (DMS 114 small cell lung): 0.595 µM; GI50 (HOP-18 NSCLC): 0.55 µM; TGI (HOP-18 NSCLC): 1.93 µM; TGI (KM20L2 colon): 3.66 µM; TGI (LXFL 529 NSCLC): 1.39 µM; TGI (M19-MEL melanoma): 4.86 µM
Cc1cc(C)nc(NS(=O)(=O)c2ccc(Nc3nnc(/C=C/c4c(O)ccc5ccccc45)c(=O)n3N)cc2)n1 | 62.5 | 78.5 |  |  | 86.3 | > 100 | 
COc1cc(O)c2c(=O)c(OC)c(-c3ccc(OC)c(OC)c3)oc2c1.[Zn+2] | > 100 | > 100 |  | > 100 | > 100 | > 100 | GI50 (DU-145 prostate): 24.6 µM; GI50 (EKVX NSCLC): 25.7 µM
Nc1ccc(S(=O)(=O)NCCS(=O)(=O)O)cc1 | > 100 | > 100 | > 100 | > 100 | > 100 | > 100 | 
CC(=O)[C@]12OC(=O)C3=C1[C@H](CC[C@@H]3C)[C@@H](C)C[C@H]2C=C(C)C |  |  | 14.9 | 17.3 | 15.2 | 15.4 | 
O=C(c1ccc(Cl)c(Cl)c1)N(C(=O)N1CCN(c2ccccc2)CC1)S(=O)(=O)c1ccccc1 | > 100 | > 100 | > 100 | > 100 | 50.3 | > 100 | 
Cc1c(-c2ccccc2)c(C#N)c2nnn(C)c(=O)n12 | > 100 | > 100 | > 100 | > 100 | > 100 | > 100 | 
CC(=O)Oc1cc(/C=C/c2ccc(O)cc2)cc(OC(C)=O)c1 |  |  | > 100 | > 100 | > 100 | > 100 | 
CCCCCCCCc1ccc(CCC(N)(CO)CO)cc1 |  | 5.8 | 3.44 | 3.53 | 3.4 | 3.24 | GI50 (DU-145 prostate): 1.81 µM; GI50 (EKVX NSCLC): 2.36 µM; GI50 (KM12 colon): 1.93 µM; GI50 (NCI-H460 lung): 1.76 µM; GI50 (UO-31 renal): 1.7 µM
CC(=O)C(N=NC1CCC(S(=O)(=O)NB2N=CS2)CC1)C(=O)Nc1ccccc1C (stereo unspecified) |  | 41.2 | 30.1 | 33.9 | 34 |  | TGI (DLD-1 colon): 35.4 µM; TGI (DMS 114 small cell lung): 26.3 µM; TGI (DMS 273 small cell lung): 48 µM; TGI (HOP-18 NSCLC): 80 µM; TGI (KM20L2 colon): 29.6 µM; TGI (LXFL 529 NSCLC): 27.6 µM; TGI (M19-MEL melanoma): 34.1 µM; TGI (SNB-78 CNS): 67.1 µM
Cc1ccccc1C1CC(=O)CC(c2ccccc2C)C12C(=O)NC(=S)NC2=O (stereo unspecified) |  | > 100 | 53.6 | 41.8 | 43.2 | > 100 | 
NC(=S)N/N=C1\CC(c2ccccc2)Nc2ccccc21 (stereo unspecified) |  | > 100 |  | > 100 | 80.7 |  | TGI (DLD-1 colon): > 100 µM; TGI (DMS 114 small cell lung): 63.4 µM; TGI (DMS 273 small cell lung): > 100 µM; TGI (HOP-18 NSCLC): > 100 µM; TGI (KM20L2 colon): 47.2 µM; TGI (LXFL 529 NSCLC): > 100 µM; TGI (M19-MEL melanoma): > 100 µM; TGI (SNB-78 CNS): > 100 µM
C[N+]1(c2ccccc2)C=C(c2ccccc2)SC1=S (stereo unspecified) | > 100 | > 100 | > 100 | > 100 | > 100 | > 100 | 
Cc1ncc(COP(=O)(O)O)c(C)c1O | > 100 | > 100 | > 100 | > 100 | > 100 |  | 
CC(C)=CC[C@H]1C[C@@]2(CC=C(C)C)C(=O)/C(=C(/O)c3ccccc3)C(=O)[C@](CC=C(C)C)(C2=O)C1(C)C | 35 | 20 | 19.9 | 11.5 | 13.3 |  | 
